Results from US20230364057A1, “BACTERIAL DNA GYRASE INHIBITORS AND METHODS OF USE THEREOF” (THE FLORIDA INTERNATIONAL UNIVERSITY BOARD OF TRUSTEES, priority 2022, published 2023).
Converted amounts (≈) assume the structure as drawn.

Experiments:
S. aureus (ATCC 14775) = assay: Minimum inhibitory concentration, broth microdilution; settings: for MIC: Staphylococcus aureus, ATCC14775, read-out: Minimum Inhibitory Concentration S.aureus
Description: Antibacterial minimum inhibitory concentrations (MICs) were obtained from three independent experiments using broth microdilution methods in 96-well plates according to Clinical and Laboratory Standards Institute guidelines. Cells were culture from singles colonies in MHIIB medium for 24 h at 37° C. in agitation (200 RPM). The cultures were then diluted using the same media to reach an OD600 of 0.1. Then, 50 µL of the diluted cultures were added to the plates holding 50 µL of serially diluted compounds in MHIIB. The plates were incubated at 37° C. for 20 h. The starting inoculum was fixated to 10^5 colony-forming units per ml.

B. subtilis (ATCC 6633) = assay: as above; settings: Bacillus subtilis, ATCC6633, read-out: Minimum Inhibitory Concentration B.subtilis
E. coli DNA gyrase [1] = molecular target: T1, E. coli DNA gyrase (Escherichia coli (strain K12), UniProt P0AES4+P0AES6); assay: Agarose gel-based DNA gyrase inhibition assay; assay type: biochemical
Description: 100 ng of DNA gyrase was used to supercoil the rx pAB1 in the presence of different concentrations of a gyrase inhibitor. […] Samples were analyzed by electrophoresis in 1% w/v agarose gels followed by ethidium bromide staining and photographed under UV light.

E. coli DNA gyrase [2] = molecular target: T1, E. coli DNA gyrase; assay: biochemical; assay type: biochemical; settings: for IC50: bin of Table 2
MRSA = assay: Minimum inhibitory concentration, broth microdilution; settings: for MIC: Staphylococcus aureus, MRSA, read-out: Minimum Inhibitory Concentration S.aureus MRSA

SMILES | MIC (S. aureus (ATCC 14775)) | MIC (B. subtilis (ATCC 6633)) | inhibition of E. coli DNA gyrase activities (E. coli DNA gyrase [1]; 200 µM of compounds) | inhibition of E. coli DNA gyrase activities (E. coli DNA gyrase [1]; 50 µM of compounds) | MIC (MRSA) | other results
O=C(O)c1cc(O)c2c(c1)C(=O)c1cccc(O)c1C2=O [Compound 82] | 50 µM (≈ 14.2 µg/mL) | 50 µM (≈ 14.2 µg/mL) | almost completely inhibited | – | – | IC50 (E. coli DNA gyrase [2]; IC50 (50-200 µM)): 50 to 200 µM
CN1C(=O)C(=Cc2ccc(Sc3ccccc3)o2)C(=O)N(C)C1=S [Compound 161] | – | 200 µM (≈ 71.7 µg/mL) | – | completely inhibited | – | IC50 (E. coli DNA gyrase [2]; IC50 (15-[…] µM)): 15 to 25 µM
COc1cccc(-n2c(C)cc(/C=C3/C(=N)N4C(=NC3=O)SN=C4[S+](C)[O-])c2C)c1 (centres unmarked) [Compound 105] | 50 µM (≈ 22.1 µg/mL) | 25 µM (≈ 11 µg/mL) | – | completely inhibited | 100 µM (≈ 44.2 µg/mL) | IC50 (E. coli DNA gyrase [2]; IC50 ([…]-50 µM)): 25 to 50 µM
O=[N+]([O-])c1cc(/C=N/Nc2nc3ccccc3[nH]2)c(O)cc1O [Compound 159] | 50 µM (≈ 15.7 µg/mL) | 200 µM (≈ 62.7 µg/mL) | – | completely inhibited | 100 µM (≈ 31.3 µg/mL) | –
Cc1ccc2nc3n(c2c1C)C/C(=C/c1ccc(-c2ccccc2C(=O)O)o1)[S+]3[O-] (centres unmarked) [Compound 155] | 100 µM (≈ 41.8 µg/mL) | 50 µM (≈ 20.9 µg/mL) | – | completely inhibited | 50 µM (≈ 20.9 µg/mL) | IC50 (E. coli DNA gyrase [2]; IC50 (15-[…] µM)): 15 to 25 µM
Cc1ccc(-c2csc(NC(=O)c3cccc(C)c3)c2C(=O)O)cc1 [Compound 58] | 100 µM (≈ 35.1 µg/mL) | 100 µM (≈ 35.1 µg/mL) | completely inhibited | – | 100 µM (≈ 35.1 µg/mL) | IC50 (E. coli DNA gyrase [2]; IC50 (50-200 µM)): 50 to 200 µM
COc1cc(C(=O)Nc2scc(-c3ccc(Br)cc3)c2C(=O)O)cc(OC)c1OC [Compound 189] | – | 100 µM (≈ 49.2 µg/mL) | – | completely inhibited | – | IC50 (E. coli DNA gyrase [2]; IC50 ([…]-50 µM)): 25 to 50 µM
O=C1/C(=C\c2ccc(O)cc2)SC(=S)N1Cc1ccccc1 [Compound 44] | 12.5 µM (≈ 4.09 µg/mL) | 25 µM (≈ 8.19 µg/mL) | completely inhibited | – | 25 µM (≈ 8.19 µg/mL) | IC50 (E. coli DNA gyrase [2]; IC50 (50-200 µM)): 50 to 200 µM
Cc1ccccc1NC1=C/C(=N/S(=O)(=O)c2ccc(C(=O)O)cc2)c2ccccc2C1=O [Compound 4] | 50 µM (≈ 22.3 µg/mL) | 100 µM (≈ 44.6 µg/mL) | completely inhibited | – | 50 µM (≈ 22.3 µg/mL) | IC50 (E. coli DNA gyrase [2]; IC50 ([…]-50 µM)): 25 to 50 µM
CN1C[C@H](CNC(=O)OCc2ccccc2)C[C@@H]2c3cccc4c3c(cn4C)C[C@H]21 [Compound 45] | 100 µM (≈ 40.4 µg/mL) | 100 µM (≈ 40.4 µg/mL) | almost completely inhibited | – | 100 µM (≈ 40.4 µg/mL) | IC50 (E. coli DNA gyrase [2]; IC50 (50-200 µM)): 50 to 200 µM
Cc1cc(/C=C2\SC(=S)N=C2O)c(C)n1-c1cccc(O)c1 [Compound 21] | – | 100 µM (≈ 33 µg/mL) | completely inhibited | completely inhibited | – | IC50 (E. coli DNA gyrase [2]; IC50 ([…]-50 µM)): 25 to 50 µM
O=C(O)CCCN1C(=O)C(=Cc2ccc(-c3nc4ccccc4s3)o2)SC1=S [Compound 41] | – | 6.25 µM (≈ 2.69 µg/mL) | completely inhibited | completely inhibited | – | –
CNc1nnc(-c2ccc(C)cc2)c2ccccc12 [Compound 108] | 200 µM (≈ 49.9 µg/mL) | – | – | completely inhibited | 200 µM (≈ 49.9 µg/mL) | IC50 (E. coli DNA gyrase [2]; IC50 (15-[…] µM)): 15 to 25 µM
Cc1cc(C)c2c(c1)C(=NNc1ccc(C(=O)O)cc1)C(O)=N2 [Compound 9, 4-[2-(5,7-Dimethyl-2-oxoindol-3-yl)hydrazinyl]benzoic acid] | 3.12 µM (≈ 0.967 µg/mL) | 25 µM (≈ 7.73 µg/mL) | completely inhibited | completely inhibited | 3.12 µM (≈ 0.967 µg/mL) | growth of S. aureus (S. aureus (ATCC 14775)): strongly inhibited the growth; growth of MRSA (MRSA): strongly inhibited the growth; inhibition of E. coli DNA gyrase activities (E. coli DNA gyrase [2]): potent gyrase inhibitor
COC(=O)c1c(NC(=O)CC2Nc3ccccc3NC2=O)sc(C)c1C (centres unmarked) [Compound 55] | – | – | almost completely inhibited | – | 25 µM (≈ 9.34 µg/mL) | IC50 (E. coli DNA gyrase [2]; IC50 (50-200 µM)): 50 to 200 µM
O=C(O)C(Cc1ccccc1)N1C(=O)/C(=C\C=C\c2ccco2)SC1=S (centres unmarked) [Compound 157] | 200 µM (≈ 77.1 µg/mL) | 200 µM (≈ 77.1 µg/mL) | – | completely inhibited | 200 µM (≈ 77.1 µg/mL) | –
CCc1ccc(S(=O)(=O)/N=C2/C=C(Nc3ccc(C(=O)O)cc3)C(=O)c3ccccc32)cc1 [Compound 104] | 100 µM (≈ 46.1 µg/mL) | 50 µM (≈ 23 µg/mL) | – | completely inhibited | 100 µM (≈ 46.1 µg/mL) | IC50 (E. coli DNA gyrase [2]; IC50 ([…]-50 µM)): 25 to 50 µM
O=C(O)c1ccc(NN=C2c3cc(Br)ccc3NC2O)cc1 (centres unmarked) [Compound 111] | – | 100 µM (≈ 36.2 µg/mL) | – | completely inhibited | – | –
O=C1N=C(O)/C(=C/c2ccc(N3CCCC3)cc2)C(=O)N1Cc1ccc(F)cc1 [Compound 184] | 200 µM (≈ 78.7 µg/mL) | – | – | potently inhibited | 200 µM (≈ 78.7 µg/mL) | IC50 (E. coli DNA gyrase [2]; IC50 (15-[…] µM)): 15 to 25 µM
Cc1ccc(/C=C2\SC(N3CCN(C(c4ccccc4)c4ccccc4)CC3)=NC2=O)o1 [Compound 33] | – | – | completely inhibited | – | – | IC50 (E. coli DNA gyrase [2]; IC50 (50-200 µM)): 50 to 200 µM
CCOC(=O)C1=C(Nc2ccc(C)cc2)S/C(=C\c2ccc(-c3ccccc3C(=O)O)o2)C1=O [Compound 60] | – | – | completely inhibited | – | – | IC50 (E. coli DNA gyrase [2]; IC50 (50-200 µM)): 50 to 200 µM
Cc1cccc(/N=C2/NC(=O)/C(=C\C=C\c3ccco3)S2)c1C [Compound 149] | – | – | – | completely inhibited | – | IC50 (E. coli DNA gyrase [2]; IC50 (15-[…] µM)): 15 to 25 µM
O=C(/C=C/c1ccco1)Nc1cccc2cccnc12 [Compound 164] | 200 µM (≈ 52.9 µg/mL) | – | – | – | 200 µM (≈ 52.9 µg/mL) | –
O=C(O)CCCCCN1C(=O)/C(=C\c2ccc(-c3ccc(Cl)cc3)o2)SC1=S [Compound 36] | – | 12.5 µM (≈ 5.45 µg/mL) | completely inhibited | completely inhibited | – | –
Cc1ccc(NC2=NC(=O)/C(=C/C=C/c3ccco3)S2)cc1 [Compound 24] | – | – | completely inhibited | completely inhibited | – | IC50 (E. coli DNA gyrase [2]; IC50 ([…]-50 µM)): 25 to 50 µM
O=C(O)c1cc(N2N=C(C(F)(F)F)/C(=C/C=C/c3ccco3)C2=O)ccc1Cl [Compound 49] | – | – | completely inhibited | almost completely inhibited | – | IC50 (E. coli DNA gyrase [2]; IC50 ([…]-50 µM)): 25 to 50 µM
O=C(O)c1ccc(/N=N/C2C(O)=Nc3ccc(Cl)cc32)cc1 (centres unmarked) [Compound 126] | 100 µM (≈ 31.6 µg/mL) | 100 µM (≈ 31.6 µg/mL) | – | completely inhibited | 100 µM (≈ 31.6 µg/mL) | –
COC(=O)C1C2CC3c4[nH]c5cc(OC)ccc5c4CCN3CC2CC(OC(=O)c2ccc(N)cc2)C1OC (centres unmarked) [Compound 204] | – | – | potently inhibited | – | – | IC50 (E. coli DNA gyrase [2]; IC50 (50-200 µM)): 50 to 200 µM
